In PubChem BioAssay AID602166 (The Scripps Research Institute Molecular Screening Center, 2012) one finds IC50 data, which are given here for 95 compounds.

The target in the assay is Nuclear receptor coactivator 3 (Homo sapiens) (UniProt Q9Y6Q9). Briefly: SRC3 coactivator transcriptional activity inhibitors, dose response, cell-based, luminescence (AID 602166).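 Note: potency for reduction of SRC3 reporter signal so compounds are inhibitors.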 As to conditions: SRC3 luciferase reporter cell assay. Background: A reporter such as luciferase makes a cellular process visible.

The source made the active and inactive calls. The rule behind the calls is not given here.

Sequence of Nuclear receptor coactivator 3 (Homo sapiens) (Q9Y6Q9 whole entry, looked up): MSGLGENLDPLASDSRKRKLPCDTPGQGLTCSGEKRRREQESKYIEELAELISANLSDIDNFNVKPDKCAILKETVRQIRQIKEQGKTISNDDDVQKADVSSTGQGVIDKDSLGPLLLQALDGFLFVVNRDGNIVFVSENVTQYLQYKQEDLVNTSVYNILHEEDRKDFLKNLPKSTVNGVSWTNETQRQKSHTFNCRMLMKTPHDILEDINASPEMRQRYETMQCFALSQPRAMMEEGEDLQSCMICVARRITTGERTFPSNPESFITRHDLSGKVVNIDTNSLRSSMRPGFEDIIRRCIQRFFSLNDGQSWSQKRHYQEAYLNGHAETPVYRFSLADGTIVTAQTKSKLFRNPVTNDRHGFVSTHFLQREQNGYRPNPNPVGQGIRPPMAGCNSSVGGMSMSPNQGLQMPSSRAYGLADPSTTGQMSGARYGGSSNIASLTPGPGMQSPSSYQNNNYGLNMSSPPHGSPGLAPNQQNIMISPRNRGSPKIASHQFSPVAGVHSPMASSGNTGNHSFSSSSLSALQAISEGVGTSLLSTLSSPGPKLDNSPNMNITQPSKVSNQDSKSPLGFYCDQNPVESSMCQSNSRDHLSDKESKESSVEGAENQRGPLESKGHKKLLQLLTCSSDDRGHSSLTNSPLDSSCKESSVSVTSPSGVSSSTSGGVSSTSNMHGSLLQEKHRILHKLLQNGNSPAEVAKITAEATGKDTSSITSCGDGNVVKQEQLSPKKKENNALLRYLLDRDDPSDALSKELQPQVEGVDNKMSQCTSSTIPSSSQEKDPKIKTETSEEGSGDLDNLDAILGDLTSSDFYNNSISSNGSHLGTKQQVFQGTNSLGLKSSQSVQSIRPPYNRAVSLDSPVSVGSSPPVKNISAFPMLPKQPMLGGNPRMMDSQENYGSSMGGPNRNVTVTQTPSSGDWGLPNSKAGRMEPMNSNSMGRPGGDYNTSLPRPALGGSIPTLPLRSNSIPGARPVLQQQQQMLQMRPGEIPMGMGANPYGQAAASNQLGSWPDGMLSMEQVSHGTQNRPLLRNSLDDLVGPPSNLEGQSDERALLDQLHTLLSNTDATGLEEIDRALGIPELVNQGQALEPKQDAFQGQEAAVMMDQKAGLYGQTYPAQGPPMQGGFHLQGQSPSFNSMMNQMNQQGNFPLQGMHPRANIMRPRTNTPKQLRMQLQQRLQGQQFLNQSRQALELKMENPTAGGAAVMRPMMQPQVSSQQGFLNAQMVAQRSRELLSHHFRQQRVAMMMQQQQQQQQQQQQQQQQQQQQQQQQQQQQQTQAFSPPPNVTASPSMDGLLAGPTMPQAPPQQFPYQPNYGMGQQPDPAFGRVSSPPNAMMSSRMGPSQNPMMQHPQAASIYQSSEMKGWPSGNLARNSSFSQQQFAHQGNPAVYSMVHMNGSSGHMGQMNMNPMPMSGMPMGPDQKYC

In general, IC50 refers to the concentration that gives 50% inhibition. Consider `CCCS(=O)(=O)Nc1ccc(Nc2c3ccccc3nc3ccccc23)c(OC)c1`, for which the IC50 was 0.605 µM.

Regarding `Cc1ccc(NC(=O)c2cc(C)n(-c3ccccc3)c2C)cc1`, the IC50 is > 35.9 µM (inactive).

Turning to `Fc1ccccc1-c1csc(=Nc2cccnc2)n1CCCn1ccnc1`, the IC50 is 5.27 µM.

For `c1csc(Cc2nn3c(-c4ccncc4)nnc3s2)c1`, the IC50 was 8.11 µM.

With `CC(=O)N1CCN(c2ncnc3ccccc23)CC1`, the IC50 is 8.94 µM.

Turning to `Cc1nc(N2CCC(C(N)=O)CC2)c2c(-c3cccs3)csc2n1`, the IC50 was 6.94 µM.

Regarding `COc1ccc(-n2cnc3c(sc4nccc(N(C)C)c43)c2=O)cc1`, the IC50 is 8.19 µM.

As for `O=C(OCCC12CC3CC(CC(C3)C1)C2)c1ccc(NCc2cc(O)ccc2O)cc1`, the IC50 was 4.38 µM.

In the case of `Cc1ccc(C2=NN(C(=O)CCl)C(c3cccs3)C2)o1` (stereo not given), the IC50 result was “inactive”.

In the case of `N#Cc1c2ccc(O)cc2n2ccccc12`, the IC50 is 3.41 µM.

Turning to `O=[N+]([O-])c1ccc(N(CCO)CCO)c2c1no[n+]2[O-]`, the concentration for half-maximal inhibition (IC50) was 7.24 µM.

For the compound `O=[N+]([O-])c1cccc2c1ccc1ncccc12`, the IC50 is 8.07 µM.

On to `S=C(Nc1ccccc1)Nc1ccc(OCc2ccc(Cl)cc2Cl)cc1`, for which the IC50 is 4.36 µM.

Take `C(=Cc1cnc2ccccc2n1)c1ccc2c(c1)OCO2`: the IC50 entry is “inactive”.

In the case of `COc1ccc(C(C(=O)NC2CCCCC2)N(C(=O)CCl)c2ccc(Cl)cc2)cc1` (stereo not given), the IC50 was 3.7 µM.

Turning to `Cc1c(CC(=O)NCCCC(=O)O)c(=O)oc2cc3c(cc12)CCC(C)(C)O3`, the IC50 was 7.52 µM.

With `O=c1[nH]c(O)c(N=Nc2ccc3c(c2)OCCO3)c(=O)[nH]1`, the IC50 was > 35.9 µM (inactive).

As for `COC(CN(C(=O)CCl)C(C(=O)NC1CCCCC1)c1ccccc1C)OC` (stereo not given), the IC50 was 6.18 µM.

Take `O=C(c1ccncc1)N(Cc1cc2ccccc2[nH]c1=O)C1CCCCC1`: the IC50 was 5.82 µM.

Regarding `c1ccc2c(c1)Nc1ccncc1S2`, the IC50 result was “inactive”.

Turning to `COc1cccc(-c2nnc3sc(C4CCCCC4)nn23)c1`, the IC50 was 1.73 µM.

As to `COC(=O)c1c(C)n(-c2ccc(OC)cc2)c2ccc(O)cc12`, the IC50 was 3.99 µM.

In the case of `CCc1ccc(-c2nc(CSCC(=O)NCc3ccco3)c(C)o2)cc1`, the IC50 was > 35.9 µM (inactive).

As to `CCCCC(=O)NC(c1ccc(Cl)cc1Cl)c1ccc2cccnc2c1O` (stereo not given), the IC50 is 4.71 µM.

Consider `CC(=O)c1cccc(NC(=O)Nc2ccc3c(c2)N(C)C(=O)CS3)c1`, for which the IC50 is > 12 µM (inactive).

For `CCC(=O)N1CCN(c2ccnc3cc(Cl)ccc23)CC1`, the IC50 was 8.04 µM.

`O=c1[nH]c2ccccc2n1C1CCN(C(c2ccccc2)c2nnnn2Cc2ccccc2)CC1` (stereo not given): the IC50 entry was “inactive”.

Regarding `CCOC(=O)C(C(C)=O)c1c(Br)c(O)c(O)c2c(C(=O)c3ccc(C)cc3)coc12` (stereo not given), the IC50 was 4.11 µM.

Turning to `COc1ccccc1C(=O)N(CCC1CCCN1C)c1nc2ccccc2s1` (stereo not given), the IC50 was > 35.9 µM (inactive).

As to `NC(=S)N/N=C1\CCOc2ccc(Cl)cc21`, the IC50 is 6.9 µM.

Turning to `O=C(Nc1nc2cc3c(cc2s1)OCCO3)C1=COCCO1`, the IC50 entry was “inactive”.

As for `O=C(Nc1nc2ccccc2s1)C1c2ccccc2Oc2ccccc21`, the IC50 was 7.97 µM.

Regarding `Nc1nc(CCl)nc(Nc2cccc3ccccc23)n1`, the IC50 entry was “inactive”.

Take `COc1cc2c(cc1OC)C(C)N(C(=O)c1cccc([N+](=O)[O-])c1)CC2` (stereo not given): the IC50 was 7.21 µM.

Consider `COc1ccccc1N(C(=O)CCl)c1cn(C(C)=O)c2ccccc12`, for which the IC50 was 8.1 µM.

`O=C(N/N=C\c1ccc([N+](=O)[O-])s1)c1cncc(Br)c1`: the IC50 is 5.46 µM.

Turning to `C=CS(=O)(=O)N(Cc1ccc(Cl)c(Cl)c1)C[C@@H](O)CO`, the IC50 was 6.97 µM.

As for `COc1cccc(F)c1C(C[N+](=O)[O-])c1c(N)n(C)c(=O)n(C)c1=O` (stereo not given), the IC50 result is “inactive”.

For the compound `COc1cccc(NC(=O)CSc2nnc(-c3cc(C)n(-c4ccccc4)c3C)o2)c1`, the IC50 was > 35.9 µM (inactive).

On to `CCOc1ccc(-c2cc(C)n3nc(C(N)=O)cc3n2)cc1`, for which the IC50 was 7.81 µM.

For the compound `COc1cccc2c1C(=N)c1c(O)c3c(c(O)c1C2=O)CC(O)(C(C)=O)CC3OC1CC(N)C(O)C(C)O1` (stereo not given), the IC50 was > 35.9 µM (inactive).

In the case of `CN(Cc1cnc2nc(N)nc(N)c2n1)c1ccc(C(=O)NC(CCC(=O)O)C(=O)O)cc1` (stereo not given), the IC50 was > 35.9 µM (inactive).

As for `COC(=O)c1cc(S(=O)(=O)NCCc2ccc(Cl)cc2)c[nH]1`, the IC50 is 5.72 µM.

Consider `CCOc1cc(C(N)=O)cc(Br)c1OC`, for which the IC50 was 5.79 µM.

For the compound `CCCC(=O)NC(c1ccc(Cl)cc1Cl)c1ccc2cccnc2c1O` (stereo not given), the IC50 entry is “inactive”.

As for `CCOC(=O)CC(=O)CSc1nccc(-c2cccnc2)n1`, the IC50 result was “inactive”.

Consider `COc1cc(C(=O)N/N=C(\c2ccccc2)c2ccccn2)cc(OC)c1OC`, for which the IC50 result was “inactive”.

Take `COc1cccc(CNc2ncnc3ccc(-c4c(C)noc4C)cc23)c1`: the IC50 result was “inactive”.

On to `CC(C)(C)c1ccc(Oc2ccc(N)cn2)cc1`, for which the IC50 result is “inactive”.

With `Cc1ccc(N(CCC#N)C(=O)CCl)cc1C`, the IC50 was 8.64 µM.

Turning to `O=C(NCc1ccccc1)c1c(Cl)nc(Cl)c(Cl)c1Cl`, the IC50 entry was “inactive”.

Turning to `Cc1nc([N+](=O)[O-])c(Sc2nc3ccccc3n2C)n1Cc1ccccc1`, the IC50 entry was “inactive”.

`O=C(N/N=C\c1ccc([N+](=O)[O-])o1)C1COc2ccccc2O1` (stereo not given): the IC50 was > 35.9 µM (inactive).

For `O=C(COc1ccc(Cl)cc1)Nc1ccc(C(=O)NCc2cccnc2)cc1`, the IC50 entry is “inactive”.

In the case of `Cc1sc2ncnc(N3CCC(C(=O)Nc4ccccc4C(C)(C)C)CC3)c2c1C`, the IC50 was 5.75 µM.

`CCOc1ccc(/C=C2\SC(=S)N(CCCC(=O)NCCCN3CCOCC3)C2=O)cc1`: the IC50 entry was “inactive”.

On to `c1cc2[nH]snc2c2nc(C3CC3)nc12`, for which the IC50 is 1.62 µM.

As for `O=C(N/N=C(\c1ccccc1)c1ccccn1)c1ccccc1Cl`, the IC50 entry was “inactive”.

Turning to `COCCNC(=O)c1cc(-c2ccccn2)nc2ccc(S(=O)(=O)N3CCC(C)CC3)cc12`, the IC50 is > 35.9 µM (inactive).

As to `O=c1[nH]c2ccccc2n1C1CCN(C(c2ccccc2)c2nnnn2-c2ccc3c(c2)OCCO3)CC1` (stereo not given), the IC50 result is “inactive”.

On to `C(=NNc1ccc2ccccc2n1)c1ccccn1`, for which the IC50 result was “inactive”.

`CC1CCN(C2=NC(=O)/C(=C/c3ccccc3F)S2)CC1`: the IC50 was > 35.9 µM (inactive).

On to `CN[C@H]1CCc2cc(OC)c(OC)c(OC)c2-c2ccc(OC)c(=O)cc21`, for which the IC50 was > 35.9 µM (inactive).

`OCCN1CCN(C(=S)c2ccc(-c3ccccc3)cc2)CC1`: the IC50 was 4.57 µM.

For `Nc1nc(=S)c2ncn([C@@H]3O[C@H](CO)[C@@H](O)[C@H]3O)c2[nH]1`, the IC50 is 2.55 µM.

For `O=[N+]([O-])c1nn(-c2ccc3c(c2)OCCO3)n(O)c1=Nc1ccccc1`, the IC50 was 1.08 µM.

With `CCOC(=O)C(=CNc1ccc(NC2=NCC(C)S2)cc1)C(=O)OCC` (stereo not given), the IC50 is 3.32 µM.

Turning to `C=CCn1c(C)cc(C(=O)COc2ccc(C)nc2[N+](=O)[O-])c1C`, the IC50 was > 35.9 µM (inactive).

In the case of `C=CCOc1ccc(/C=C2\SC(=S)N(CCC(=O)O)C2=O)cc1`, the IC50 result was “inactive”.

For the compound `Cc1cccc(NC(=O)c2cc(Cl)ccc2[N+](=O)[O-])c1`, the 50% inhibitory concentration (IC50) was 5.61 µM.

In the case of `O=C(CC1CS(=O)(=O)CC1CC(=O)Nc1ccc2c(c1)OCCO2)Nc1ccc2c(c1)OCCO2` (stereo not given), the IC50 is > 35.9 µM (inactive).

Take `O=C(N/N=C/c1cc(Br)c(Br)s1)c1ccncc1`: the IC50 is 8.67 µM.

On to `CS(=O)c1nc(-c2ccc(Br)cc2)cc(-c2ccccc2)c1C#N` (stereo not given), for which the IC50 result is “inactive”.

As to `CC(=O)c1cccc(-c2csc3ncnc(Sc4nnnn4C)c23)c1`, the IC50 entry was “inactive”.

In the case of `O=C(Nc1ccc(OCC(=O)N2CCOCC2)cc1)c1cncc(Br)c1`, the IC50 is 4.43 µM.

Turning to `CCOc1ccc(Nc2cc(C)nc(-n3nc(C)cc3C)n2)cc1`, the IC50 is > 35.9 µM (inactive).

Consider `Cc1ccc2nc(C(F)(F)F)c(C#N)c(N)c2c1`, for which the IC50 result is “inactive”.

For `COc1ccc(-c2nsc3c(N4CCCCC4)ncnc23)cc1`, the IC50 is > 35.9 µM (inactive).

Turning to `Cc1ccc2nc(-c3ccncc3)c(NC3CCCC3)n2c1`, the IC50 entry was “inactive”.

Take `Cc1c(/C(O)=C2/C(=O)C(=O)N(Cc3cccnc3)C2c2ccccn2)cnn1-c1ccccc1` (stereo not given): the IC50 was > 35.9 µM (inactive).

For `CO[C@@]12[C@@H]3N[C@@H]3CN1C1=C(C(=O)C(N)=C(C)C1=O)[C@@H]2COC(N)=O`, the IC50 was > 35.8 µM (inactive).

Consider `Cc1ccc(C(=O)O/N=C(\N)c2ccccn2)c(Cl)c1`, for which the IC50 was > 35.9 µM (inactive).

In the case of `Cc1ccc(N=Nc2ccc3ccccc3c2O)cc1`, the IC50 was > 35.9 µM (inactive).

Take `COc1ccc(/C=C2\CN(Cc3ccccc3)C/C(=C\c3ccc(OC)c(O)c3)C2=O)cc1O`: the IC50 is > 35.9 µM (inactive).

On to `O=S(=O)(/C(=C\c1ccc(C(F)(F)F)cc1)c1nc2ccccc2[nH]1)c1ccccc1`, for which the IC50 was > 12 µM (inactive).

In the case of `CCCc1c(C)nc2ccccc2c1SCCC#N`, the IC50 is 7.93 µM.

Turning to `Nc1nccc(-c2ccc(-n3cnc4ccccc43)cc2)n1`, the IC50 is 1.91 µM.

For `CN(C)c1ccc(C(=S)Nc2ccccc2)cc1`, the IC50 was > 35.9 µM (inactive).

As for `c1ccc(-c2nnc(-c3ccccn3)nc2NC2CCCCC2)cc1`, the IC50 is 3.94 µM.

For `COc1ccc(-c2cn[nH]c2-c2ccc(OC)cc2O)cc1`, the IC50 is 2.89 µM.

In the case of `COc1cccc(/C=N/Nc2cc(-n3nc(C)cc3-c3ccccc3)ncn2)c1O`, the IC50 is 4.12 µM.

As to `CN1C(=O)C2(C(C#N)=C(N)N(c3cc(Cl)cc(Cl)c3)C3=C2C(=O)CCC3)c2ccccc21` (stereo not given), the IC50 was 2.63 µM.

Turning to `CN(C)c1ccc(CNC(=O)CCNS(=O)(=O)c2cc(Br)cnc2N)cc1`, the IC50 was 4.34 µM.

With `C=CCOn1c(C)c(C(C)=O)c2c3nonc3ccc21`, the IC50 is 4.12 µM.

Turning to `CCc1ccc(/C=C2\SC(=S)N(CCCC(=O)NCCCN3CCOCC3)C2=O)cc1`, the IC50 entry is “inactive”.
